From paper PMC8330742, “New benzothieno[2,3-c]pyridines as non-steroidal CYP17 inhibitors: design, synthesis, anticancer screening, apoptosis induction, and in silico ADME profile studies” (Journal of Enzyme Inhibition and Medicinal Chemistry, 2021)

Columns and labels:
[1] = test system: NCI-H322M; assay: NCI-60 SRB screen; type: cell-based, human; settings: Homo sapiens, single dose 10^−5 M, Non-small cell lung carcinoma, read-out: Growth inhibition (%)
[2] = test system: UACC-62; assay: NCI-60 SRB screen; type: cell-based, human; settings: Homo sapiens; single dose 10^−5 M; UACC-62, Melanoma; read-out: Growth inhibition (%)
[3] = test system: HCT-116; assay: NCI-60 SRB screen; type: cell-based, human; settings: Homo sapiens; single dose 10^−5 M; HCT-116, Colon cancer; read-out: Growth inhibition (%)
[4] = test system: SK-MEL-2; assay: NCI-60 SRB screen; type: cell-based, human; settings: Homo sapiens; single dose 10^−5 M; SK-MEL-2, Melanoma; read-out: Growth inhibition (%)
[5] = test system: COLO 205; assay: NCI-60 SRB screen; type: cell-based, human; settings: Homo sapiens; single dose 10^−5 M; COLO 205, Colon cancer; read-out: Growth inhibition (%)
[6] = test system: HOP-92; assay: NCI-60 SRB screen; type: cell-based, human; settings: Homo sapiens; single dose 10^−5 M; HOP-92, Non-small cell lung carcinoma; read-out: Growth inhibition (%)
[7] = test system: HT-29; assay: NCI-60 SRB screen; type: cell-based; settings: Homo sapiens; single dose 10^−5 M; HT-29, Colon cancer; read-out: Growth inhibition (%)
[8] = test system: ACHN; assay: NCI-60 SRB screen; type: cell-based; settings: Homo sapiens, single dose 10^−5 M, Renal cancer, read-out: Growth inhibition (%)
[9] = test system: OVCAR-8; assay: NCI-60 SRB screen; type: cell-based, human; settings: Homo sapiens; single dose 10^−5 M; OVCAR-8, Ovarian cancer; read-out: Growth inhibition (%)
[10] = test system: NCI/ADR-RES; assay: NCI-60 SRB screen; type: cell-based, human; settings: Homo sapiens, single dose 10^−5 M, Ovarian cancer, read-out: Growth inhibition (%)
[11] = test system: RXF 393; assay: NCI-60 SRB screen; type: cell-based, human; settings: Homo sapiens; single dose 10^−5 M; RXF 393, Renal cancer; read-out: Growth inhibition (%)
[12] = test system: MALME-3M; assay: NCI-60 SRB screen; type: cell-based, human; settings: Homo sapiens, single dose 10^−5 M, Melanoma, read-out: Growth inhibition (%)
[13] = test system: A549/ATCC; assay: NCI-60 SRB screen; type: cell-based, human; settings: Homo sapiens, single dose 10^−5 M, Non-small cell lung carcinoma, read-out: Growth inhibition (%)
[14] = test system: HOP-62; assay: NCI-60 SRB screen; type: cell-based, human; settings: Homo sapiens; single dose 10^−5 M; HOP-62, Non-small cell lung carcinoma; read-out: Growth inhibition (%)
[15] = test system: NCI-H522; assay: NCI-60 SRB screen; type: cell-based, human; settings: Homo sapiens; single dose 10^−5 M; NCI-H522, Non-small cell lung carcinoma; read-out: Growth inhibition (%)
[16] = test system: NCI-H23; assay: NCI-60 SRB screen; type: cell-based, human; settings: Homo sapiens; single dose 10^−5 M; NCI-H23, Non-small cell lung carcinoma; read-out: Growth inhibition (%)
[17] = test system: MDA-MB-435; assay: NCI-60 SRB screen; type: cell-based; settings: Homo sapiens, MDA-MB-435, read-out: Growth inhibition (%)
[18] = test system: UACC-257; assay: NCI-60 SRB screen; type: cell-based, human; settings: Homo sapiens; single dose 10^−5 M; UACC-257, Melanoma; read-out: Growth inhibition (%)
[19] = test system: M14; assay: NCI-60 SRB screen; type: cell-based, human; settings: Homo sapiens; single dose 10^−5 M; M14, Melanoma; read-out: Growth inhibition (%)
[20] = test system: KM12; assay: NCI-60 SRB screen; type: cell-based, human; settings: Homo sapiens; single dose 10^−5 M; KM12, Colon cancer; read-out: Growth inhibition (%)
[21] = test system: SK-MEL-5; assay: NCI-60 SRB screen; type: cell-based, human; settings: Homo sapiens; single dose 10^−5 M; SK-MEL-5, Melanoma; read-out: Growth inhibition (%)
[22] = test system: SF-295; assay: NCI-60 SRB screen; type: cell-based, human; settings: Homo sapiens; single dose 10^−5 M; SF-295, CNS cancer; read-out: Growth inhibition (%)
[23] = test system: 786-0; assay: NCI-60 SRB screen; type: cell-based; settings: Homo sapiens; single dose 10^−5 M; 786-0, Renal cancer; read-out: Growth inhibition (%)
[24] = test system: MOLT-4; assay: NCI-60 SRB screen; type: cell-based; settings: Homo sapiens; single dose 10^−5 M; MOLT-4, Leukaemia; read-out: Growth inhibition (%)
[25] = test system: SN12C; assay: NCI-60 SRB screen; type: cell-based, human; settings: Homo sapiens, SN12C; single dose 10^−5 M; SN 12 C, Renal cancer; read-out: Growth inhibition (%)
[26] = test system: HL-60(TB); assay: NCI-60 SRB screen; type: cell-based, human; settings: Homo sapiens; single dose 10^−5 M; HL-60(TB), Leukaemia; read-out: Growth inhibition (%)
[27] = test system: CAKI-1; assay: NCI-60 SRB screen; type: cell-based, human; settings: Homo sapiens; single dose 10^−5 M; CAKI-1, Renal cancer; read-out: Growth inhibition (%)
[28] = test system: NCI-H226; assay: NCI-60 SRB screen; type: cell-based, human; settings: Homo sapiens; single dose 10^−5 M; NCI-H226, Non-small cell lung carcinoma; read-out: Growth inhibition (%)
[29] = test system: CCRF-CEM; assay: NCI-60 SRB screen; type: cell-based; settings: Homo sapiens, single dose 10^−5 M, Leukaemia, read-out: Growth inhibition (%)
[30] = test system: SR; assay: NCI-60 SRB screen; type: cell-based; settings: Homo sapiens, single dose 10^−5 M, Leukaemia, read-out: Growth inhibition (%)
[31] = test system: OVCAR-3; assay: NCI-60 SRB screen; type: cell-based, human; settings: Homo sapiens; single dose 10^−5 M; OVCAR-3, Ovarian cancer; read-out: Growth inhibition (%)
[32] = test system: SF-268; assay: NCI-60 SRB screen; type: cell-based, human; settings: Homo sapiens; single dose 10^−5 M; SF-268, CNS cancer; read-out: Growth inhibition (%)
[33] = test system: EKVX; assay: NCI-60 SRB screen; type: cell-based, human; settings: Homo sapiens, single dose 10^−5 M, Non-small cell lung carcinoma, read-out: Growth inhibition (%)
[34] = test system: TK-10; assay: NCI-60 SRB screen; type: cell-based, human; settings: Homo sapiens; single dose 10^−5 M; TK-10, Renal cancer; read-out: Growth inhibition (%)
[35] = test system: K-562; assay: NCI-60 SRB screen; type: cell-based, human; settings: Homo sapiens, K562; single dose 10^−5 M; K-562, Leukaemia; read-out: Growth inhibition (%)
[36] = test system: HCC-2998; assay: NCI-60 SRB screen; type: cell-based, human; settings: Homo sapiens; single dose 10^−5 M; HCC-2998, Colon cancer; read-out: Growth inhibition (%)
[37] = test system: IGROV1; assay: NCI-60 SRB screen; type: cell-based, human; settings: Homo sapiens, IGROV-1; single dose 10^−5 M; IGROV1, Ovarian cancer; read-out: Growth inhibition (%)
[38] = test system: SK-MEL-28; assay: NCI-60 SRB screen; type: cell-based; settings: Homo sapiens; single dose 10^−5 M; SK-MEL-28, Melanoma; read-out: Growth inhibition (%)
[39] = test system: panel of 60 cancer cell lines; assay: NCI-60 SRB screen, mean or range over the panel; type: cell-based, human; settings: Homo sapiens; mean over the cell lines; single dose 10^−5 M; read-out: Mean growth inhibition (%)
[40] = test system: UO-31; assay: NCI-60 SRB screen; type: cell-based, human; settings: Homo sapiens; single dose 10^−5 M; UO-31, Renal cancer; read-out: Growth inhibition (%)
[41] = test system: OVCAR-4; assay: NCI-60 SRB screen; type: cell-based, human; settings: Homo sapiens; single dose 10^−5 M; OVCAR-4, Ovarian cancer; read-out: Growth inhibition (%)
[42] = test system: LOX IMVI; assay: NCI-60 SRB screen; type: cell-based, human; settings: Homo sapiens, single dose 10^−5 M, Melanoma, read-out: Growth inhibition (%)
[43] = test system: HCT-15; assay: NCI-60 SRB screen; type: cell-based, human; settings: Homo sapiens; single dose 10^−5 M; HCT-15, Colon cancer; read-out: Growth inhibition (%)
[44] = test system: SW-620; assay: NCI-60 SRB screen; type: cell-based; settings: Homo sapiens; single dose 10^−5 M; SW-620, Colon cancer; read-out: Growth inhibition (%)
[45] = test system: NCI-H460; assay: NCI-60 SRB screen; type: cell-based, human; settings: Homo sapiens; single dose 10^−5 M; NCI-H460, Non-small cell lung carcinoma; read-out: Growth inhibition (%)

O=[N+]([O-])c1cccc(C2NC3=C(Nc4ccccc4N3)c3c2sc2c(F)cccc32)c1 (stereo not drawn) [Compound 9, 9-Fluoro-7-(3-nitrophenyl)-5,6,7,13-tetrahydro[1]benzothieno[3′,2′:4,5]-pyrido[2,3-b]quinoxaline]
inhibition at 10 µM [1]: -1.56%
inhibition at 10 µM [2]: 11.5%
inhibition at 10 µM [3]: -1.05%
inhibition at 10 µM [4]: 3.87%
inhibition at 10 µM [5]: -17.1%
inhibition at 10 µM [6]: -1.53%
inhibition at 10 µM [7]: -5.27%
inhibition at 10 µM [8]: 15.5%
inhibition at 10 µM [9]: -3.4%
inhibition at 10 µM [10]: -6.5%
inhibition at 10 µM [11]: -15.3%
inhibition at 10 µM [12]: -7.56%
inhibition at 10 µM [13]: -2.98%
inhibition at 10 µM [14]: 9.45%
inhibition at 10 µM [15]: 4.63%
inhibition at 10 µM [16]: 0.22%
inhibition at 10 µM [17]: -7%
inhibition at 10 µM [18]: -15.2%
inhibition at 10 µM [19]: 1.33%
inhibition at 10 µM [20]: -0.46%
inhibition at 10 µM [21]: -22%
inhibition at 10 µM [22]: -7.1%
inhibition at 10 µM [23]: -10.3%
inhibition at 10 µM [24]: -1.99%
inhibition at 10 µM [25]: 1.71%
inhibition at 10 µM [26]: -3.65%
inhibition at 10 µM [27]: 28.3%
inhibition at 10 µM [28]: 10.4%
inhibition at 10 µM [29]: -1.14%
inhibition at 10 µM [30]: 16.5%
inhibition at 10 µM [31]: -3.93%
inhibition at 10 µM [32]: 7.06%
inhibition at 10 µM [33]: 4.82%
inhibition at 10 µM [34]: -54.7%
inhibition at 10 µM [35]: 16.6%
inhibition at 10 µM [36]: -17.5%
inhibition at 10 µM [37]: 24.2%
inhibition at 10 µM [38]: -7.98%
inhibition at 10 µM [39]: 7.87%
inhibition at 10 µM [40]: 36.1%
inhibition at 10 µM [41]: -2.74%
inhibition at 10 µM [42]: 3.13%
inhibition at 10 µM [43]: -4.08%
inhibition at 10 µM [44]: 2%
inhibition at 10 µM [45]: 1.16%
